This is an account of results in patent US8993606B2, “Oral formulations for treating metal overload” (FerroKin BioSciences, Inc., priority 2011, dated 2015).

Holding throughout (assay type): physicochemical
Data set [1] can be described thus: Solvent grinding experiments of magnesium salt form A, XRPD result. As to conditions: solvent printed as — (none). An excerpt:
The results of solvent grinding experiments of (S)-3′-(OH)-DADFT-PE magnesium salt form A are given below in Table 39, wherein LC stands for low crystallinity.

Data set [2] can be described thus: Slurry experiments of magnesium salt form A, XRPD result. Also on record: key: IS stands for insufficient solid. An excerpt:
The results of slurry experiments of (S)-3′-(OH)-DADFT-PE magnesium salt form A are given below in Table 36, wherein d stands for day, and IS stands for insufficient solid.

The nature of data set [3]: Dynamic vapor sorption/desorption (DVS). An excerpt:
As described above, Form D was obtained via DVS experimentation with Form B, and Form B was generated with crystallization experiments using solvent mixtures containing methanol or water (e.g., MeOH/acetone, IPA/MeOH, heptane/MeOH, water (solvent grinding), water (antisolvent precipitation), or water (slurry at ambient)). DVS experimentation with Form B is as follows: Dynamic vapor sorption/desorption (DVS) data were collected on a VTI SGA-100 Vapor Sorption Analyzer. Sorption and desorption data were collected over a range of 5% to 95% relative humidity (RH) at 10% RH intervals under a nitrogen purge. Samples were not dried prior to analysis. Equilibrium criteria used for analysis were less than 0.0100% weight change in 5 minutes, with a maximum equilibration time of 3 hours if the weight criterion was not met. Data were not corrected for the initial moisture content of the sample. Sodium chloride and polyvinylpyrrolidine were used as calibration standards.

A short description of data set [4]: Aqueous solubility of salts. As to conditions: tromethamine salt; read-out: aqueous solubility. An excerpt: Typically, oral formulations described herein facilitate solubilizing an active ingredient (e.g., a desazadesferrithiocin analog, salt or polymorph) at a desired amount or rate suitable for the treatment of metal overload. As used herein, the term “solubility” is generally intended to be synonymous with the term “aqueous solubility,” and refers to the ability, and the degree of the ability, of a compound to dissolve in water or an aqueous solvent or buffer, as might be found under physiological conditions. Aqueous solubility is, in and of itself, a useful quantitative measure, but it has additional utility as a correlate and predictor, with some limitations which will be clear to those of skill in the art, of oral bioavailability. Typically, a soluble compound is generally desirable, and the more soluble, the better. In liquid formulations, solubility is typically reported in mg/mL, but other measures, such as g/g, may be used. Solubilities typically deemed acceptable may range from 1 mg/mL into the hundreds or thousands of mg/mL.
Solubility may be measured under varying conditions. For example, it may be measured under conditions similar to those found in the body, such as at gastric pH or at physiologic or near-physiologic pH. “Gastric pH” as used herein means about pH 1. […]

A short description of data set [5]: Relative humidity stress (deliquescence, hygroscopicity). As to conditions: ~75% RH stress.
A short description of data set [6]: Vapor stress experiments of amorphous magnesium salt, XRPD result. Also on record: key: IS stands for insufficient solid. An excerpt:
The results of vapor stress experiments of amorphous (S)-3′-(OH)-DADFT-PE magnesium salt are given below in Table 37, wherein LC stands for low crystallinity and IS stands for insufficient solid.

Data set [7] can be described thus: Vapor diffusion experiments of amorphous magnesium salt, XRPD result. The following applies: antisolvent Hexanes. An excerpt:
The results of vapor diffusion experiments of amorphous (S)-3′-(OH)-DADFT-PE magnesium salt are given below in Table 38, wherein LC stands for low crystallinity.

Structures can show the parent of a compound that is named as a salt.

As to `COCCOCCOCCOc1cccc(C2=N[C@@](C)(C(=O)[O-])CS2)c1O.COCCOCCOCCOc1cccc(C2=N[C@@](C)(C(=O)[O-])CS2)c1O.[Mg+2]` [listing 1 of 2 here], the “XRPD Result” value in data set [1] is on record as “A (LC)”; in data set [2] (solvent ACN/THF (1:1), 60° C./4 d) it was “A + peaks”; in data set [2] (solvent EtOH/H2O (1:1), Ambient) it was “IS”; in data set [2] (solvent EtOH/H2O (1:9), Ambient) it was “IS”; in data set [2] (solvent Heptane/DCM (2:8), Ambient), “A (LC)”; in data set [2] (solvent Heptane/EtOH (2:8), Ambient), “Amorphous”. The “XRPD Result” value in data set [2] (solvent IPA, 60° C./4 d) is reported as “Amorphous”; in data set [2] (solvent IPA/Acetone (1:1), Ambient), “IS”; in data set [2] (solvent Water, 60° C./1 d), “Amorphous”.
`COCCOCCOCCOc1ccc(C2=N[C@@](C)(C(=O)O)CS2)c(O)c1` [Compound 2, Tromethamine salt of (S)-4′-(OH)-DADFT-PE] showed a weight gained in data set [3] (above ~65% RH) of roughly 50.3 wt %. The water uptake in data set [3] (below ~65% RH) was roughly 1.5 wt %. Further, the solubility in data set [4] is greater than 124 mg/mL. Further, the “deliquescence upon RH stress” value in data set [5] is “no apparent deliquescence”.
As for `COCCOCCOCCOc1cccc(C2=N[C@@](C)(C(=O)O)CS2)c1O` [Form B, (S)-3′-(OH)-DADFT-PE magnesium salt form B], in data set [3], the “hygroscopicity (DVS data)” value is “hygroscopic” and the “weight loss upon desorption” value turned out to be 26.6%. In data set [3] (above 65% RH, without reaching equilibrium weight), the “additional weight gain during sorption step” value is on record as 21.2%. Moreover, in data set [3] (at 5% RH), the “weight loss upon equilibrium” value was 10.8%. Moreover, in data set [3] (from 5% to 65% RH), the “weight gain during sorption step” value came to 5.7%.
As to `COCCOCCOCCOc1cccc(C2=N[C@@](C)(C(=O)[O-])CS2)c1O.COCCOCCOCCOc1cccc(C2=N[C@@](C)(C(=O)[O-])CS2)c1O.[Mg+2]` [listing 2 of 2 here], the “XRPD Result” value in data set [6] (solvent 1,4-Dioxane) is reported as “IS”; in data set [6] (solvent Acetone), “A (LC)”; in data set [6] (solvent DCM), “IS”; in data set [6] (solvent EtOAc) it was “IS”; in data set [6] (solvent MEK), “IS”; in data set [7] (solvent Acetone), “A (LC)”. For the same compound, the “XRPD Result” value is “A (LC)” in data set [7] (solvent DCM); “A (LC)” in data set [7] (solvent EtOAc); “Amorphous” in data set [7] (solvent MEK); “A (LC)” in data set [7] (solvent THF); “A (LC)” in data set [7] (solvent Toluene).

As a reminder, the solubility is the dissolved amount per volume that the medium holds.
